Experimental data taken from patent publication US5955506A, “Benzamides for neurodegenerative disorder treatment” (priority 1998, dated 1999).

How the values were obtained:
striatal dopamine [1] = assay: MPTP dopamine depletion model (mice, sacrificed 72 h after MPTP); type: in vivo, C57BL/6J mice; settings: for % non-MPTP control (striatal dopamine) / Dopamine/mg protein ± S.E.M.: 30 mg/kg p.o.; for % non-MPTP control (striatal dopamine) / Dopamine, nM/mg ± S.E.M., test compound / Protection, %: 15 mg/kg MPTP model; for Dopamine/mg protein ± S.E.M.: 30 min before 15 mg/kg MPTP s.c.; for prevention of dopamine depletion following MPTP challenge (in words): Table 1 results, 30 mg/kg; for Degree of protection, % (MPTP dopamine depletion test): Table 3, dose not given; for protection from MPTP neurotoxicity, % of control / protection from the neurotoxic action of MPTP (in words): 50 mg/kg; for Dopamine, nM/mg ± S.E.M., test compound / Protection, %: 50 mg/kg p.o.; for Protection, %: versus methyl cellulose control (Standard)
Method: These findings have led to the development of an assay for agents effective in treating dopamine-associated neurodegenerative disorders, such as Parkinson's disease. In this assay, test animals are given an amount of MPTP adequate to severely depress their dopamine levels. Test compounds are administered to determine if they are capable of preventing the loss of dopamine in the test animals. To the extent that dopamine levels are retained, a compound can be considered to be an effective agent for slowing or delaying the course of neurodegenerative disease, e.g., Parkinson's disease. Dopamine Depletion Studies (MPTP Model) C57BL/6J mice were pretreated with either vehicle (1% methyl cellulose) or a drug (p.o.) 30 min before MPTP. MPTP was dissolved in isotonic saline (0.9%) and given subcutaneously as a single dose of 15 mg free base/kg body weight to produce a reduction in striatal dopamine to about 0.5 nanomoles/mg protein. Groups of mice (n=8-10 per group) received either vehicle plus saline, vehicle plus MPTP, or drug plus MPTP. Seventy two hours after receiving MPTP, mice were sacrificed using cervical dislocation and the striata were excised. The tissue was homogenized in 0.4 N perchloric acid, centrifuged, and the supernatant analyzed by high performance liquid chromatography/electro-chemical detection (HPLC/ED) for dopamine levels. Supernatants were stored in a -90° C. freezer between the time of collection and analysis. The drugs were combined with methyl cellulose and were homogenized in water for dosing. The dosage amount ranged from 10 to 50 mg/kg for CPI1160, CPI1189 and CPI1234, and from 50 to 100 mg/kg for CPI1020.

[2] = In vivo biotransformation of CPI1020 (metabolite in blood after oral administration); settings: rats and mice, CPI1020 administered orally
Excerpt: Commonly owned U.S. Pat. No. 5,472,983, referred to above, discloses several benzamides useful in treating neurodegenerative diseases based on their protective action in the MPTP mouse model of Parkinson's disease. […] This compound is likely formed in the body by reduction of the ring nitro of CPI1020 to an amino moiety (CPI1160) followed by acetylation of the amino function.

Aβ(1-40) = target: T1, Aβ(1-40) (Homo sapiens, UniProt P05067); assay: Aβ(1-40) β-pleated sheet formation, Thioflavin T fluorescence; type: biochemical; settings: Aβ(1-40) 3 μg, PBS pH 6.0, 4 hours, read-out: % Protection (β-pleated sheet formation)
T1 construct: aggregated fibrils of synthetic Aβ(1-40)
T1 sequence (P05067 672-711 limits assumed): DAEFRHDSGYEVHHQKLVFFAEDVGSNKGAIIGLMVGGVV
Excerpt: Effect of Benzamides on Aβ(1-40) β-Pleated Sheets Formation: Detection of Amyloid Aggregation in Solution by Thioflavin T Fluorescence Spectra
Several assays have been developed to assess the activity of compounds as agents for the treatment of Alzheimer's disease.
Thioflavin T (ThT) rapidly associates with β pleated sheets particularly the aggregated fibrils of synthetic Aβ(1-40), giving rise to a new excitation maximum at 440 nm and enhanced emission at 490 nm. According to this principle, agents which could delay or reverse the formation of such association might be of therapeutic benefit.
Experiments were performed in 96 well plates and the fluorescence changes were evaluated using Fluorescence plate reader-CytoFluor II. Briefly, into each well was aliquoted 95 μl of ThT (3 μM) prepared in PBS (pH 6.0), 2 μl of NRT (10 μM) prepared in 0.05% of methylcellulose in PBS (pH 6.0), and 3 μl of Aβ(1-40)(3 μg) prepared with dH2 O. The fluorescence measurement began when Aβ(1-40) was added and continued for 4 hours at which the aggregation reached a plateau. The % protection of β-pleated sheet formation was calculated from the relative fluorescence unit difference between aggregation in the presence and in the absence of test compounds.

striatal dopamine [3] = assay: 6-Hydroxydopamine dopamine depletion model; type: in vivo, male Sprague Dawley rats; settings: for Test side as percent of control side: right striatum injected with 6-hydroxydopamine
Method: Another assay for agents effective in treating dopamine-associated neurodegenerative disorders has been developed. In this assay, the striatum of test animals is injected with the neurotoxicant, 6-hydroxydopamine. 6-Hydroxydopamine has a dopamine-depleting action and is widely accepted as a model for these conditions. Test compounds are administered to determine if they are capable of preventing or reducing the loss of dopamine in the test animals. Again, to the extent that dopamine levels are retained, a compound can be considered an effective agent.
Tests were conducted to assess the ability of CPI-1189 to protect against 6-hydroxydopamine-induced damage. This is a widely accepted model for Parkinson's disease in which 6-hydroxydopamine is believed to produce its toxic effects by inducing oxidative stress. 6-hydroxydopamine has been used extensively since the 1960's as a neurotoxicant. Because 6-hydroxydopamine primarily affects catecholaminergic neurons, it has been mainly used for the experimental study of Parkinson's disease. The compound has had widespread use as a means of administering unilateral lesions in the nigrastriatal system. Animals treated with this toxin show biochemical and behavioral alterations that can be measured and probed pharmacologically to assess both the severity of the lesion and to determine the effect of potential therapeutic interventions.
The protective dose response of CPI-1189 to 6-hydroxydopamine-induced damage to the nigrastriatal system was determined. Damage to the nigrastriatal system was measured in terms of striatal dopamine levels.
Acclimated male Sprague Dawley rats, 55 to 120 days of age were used.
6-hydroxy-dopamine (Research Biochemicals Incorporated) was prepared in a 0.9% NaCl solution containing 0.1 mg/ml ascorbic acid on the morning of the experiment. […]
Immediately following sacrifice, dissected striatal tissue was collected and analyzed by HPLC/EC […] with the results shown in Table 5.

striatal dopamine [4] = assay: Long term protective effect test in the MPTP model (sacrifice 3 or 14 days after dosing); type: in vivo, C57BL/6J mice
Method: C57BL/6J mice were pretreated with either vehicle (1% methyl cellulose) or a drug (p.o.) 30 min before MPTP. MPTP was dissolved in isotonic saline (0.9%) and given subcutaneously as a single dose of 15 mg free base/kg body weight to produce a reduction in striatal dopamine to about 0.5 nanomoles/mg protein. Groups of mice (n=8-10 per group) received either vehicle plus saline, vehicle plus MPTP, or drug plus MPTP. Seventy two hours after receiving MPTP, mice were sacrificed using cervical dislocation and the striata were excised. The tissue was homogenized in 0.4 N perchloric acid, centrifuged, and the supernatant analyzed by high performance liquid chromatography/electro-chemical detection (HPLC/ED) for dopamine levels. Supernatants were stored in a -90° C. freezer between the time of collection and analysis.
Additional studies were carried out to determine the long-term effect on dopamine depletion of the compounds of the invention. Using the general test method described above, C57BL/6J mice were pretreated with either vehicle or test compound and MPTP and then sacrificed either 3 or 14 days after dosing.

| Molecule | % non-MPTP control (striatal dopamine) (striatal dopamine [1]) | Dopamine/mg protein ± S.E.M. (striatal dopamine [1]) | prevention of dopamine depletion following MPTP challenge (in words) (striatal dopamine [1]) | Degree of protection, % (MPTP dopamine depletion test) (striatal dopamine [1]) | inhibition at 10 µM (Aβ(1-40)) | also measured |
| --- | --- | --- | --- | --- | --- | --- |
| CC(=O)Nc1cccc(C(=O)NC(C)(C)C)c1 [CPI1234, N-tert-butyl-3-acetamidobenzamide] | 76.7% | 1.02 ± .05 /MG PROTEIN | effective in preventing dopamine depletion | 77% |  |  |
| CCC(C)(C)NC(=O)c1ccc(NC(C)=O)cc1 [CPI1233, N-tert-amyl-4-acetamidobenzamide] |  |  |  | 40% |  |  |
| N-methylcyclopropyl-4-acetamidobenzamide [CPI1241] |  |  |  | 40% |  |  |
| CC(C)(C)NC(=O)c1ccc([N+](=O)[O-])cc1 [CPI1020, N-tert-butyl-4-nitrobenzamide, reference compound] |  |  |  |  |  | protection from MPTP neurotoxicity, % of control (striatal dopamine [1]): 56 % of control; protection from the neurotoxic action of MPTP (in words) (striatal dopamine [1]): not as effective; Dopamine, nM/mg ± S.E.M., test compound (striatal dopamine [1]): 0.58 ± .14 nM/mg; Protection, % (striatal dopamine [1]): 56% |
| CC(=O)Nc1ccc(C(=O)NC(C)(C)C)cc1 [CPI1189, N-tert-butyl-4-acetamidobenzamide] | 89.7% | 1.37 ± .14 /MG PROTEIN | effective in preventing dopamine depletion |  | 48.3 ± 10.1% | in vivo biotransformation product of CPI1020 found in blood (in words) [2]: found in the blood of rats and mice; Test side as percent of control side (striatal dopamine [3]; 50 mg/kg oral): 72.82 ± 8.32%; Test side as percent of control side (striatal dopamine [3]; 100 mg/kg oral): 77.61 ± 13.5%; protection against 6-hydroxydopamine induced dopamine depletion (in words) (striatal dopamine [3]; rat, in vivo): able to protect against 6-hydroxydopamine induced dopamine depletion; Striatal dopamine, percent of methyl cellulose/saline control (striatal dopamine [4]; 3 Day Sac): 100%; Striatal dopamine, percent of methyl cellulose/saline control (striatal dopamine [4]; 14 Day Sac): 96.7%; protection against MPTP induced dopamine depletion (in words) (striatal dopamine [4]; sacrificed three days and fourteen days post MPTP): able to protect against MPTP induced dopamine depletion; protection from MPTP neurotoxicity, % of control (striatal dopamine [1]): 105 % of control; protection from the neurotoxic action of MPTP (in words) (striatal dopamine [1]): complete protection; Dopamine, nM/mg ± S.E.M., test compound (striatal dopamine [1]): 1.57 ± .11 nM/mg; Protection, % (striatal dopamine [1]): 105%; potency relative to CPI1020 in protecting mice from dopamine reduction in the striatum (striatal dopamine [1]; s.c. MPTP): approximately 10 times |
| CCC(C)(C)NC(=O)c1ccc([N+](=O)[O-])cc1 [CPI1033, N-tert-amyl-4-nitrobenzamide] |  |  |  |  | 31.7 ± 3.5% |  |
| CC(C)NC(=O)c1ccc([N+](=O)[O-])cc1 [CPI1026, N-iso-propyl-4-nitrobenzamide] |  |  |  |  | 14.4 ± 14.4% |  |
| CC(C)(C)NC(=O)c1ccc(N)cc1 [CPI1160, N-tert-butyl4-aminobenzamide] | 93.9% | 1.25 ± .05 /MG PROTEIN | effective in preventing dopamine depletion | 94% |  |  |
| CC(=O)Nc1ccc(C(=O)NC(C)C)cc1 [CPI1232, N-iso-propyl-4-acetamidobenzamide] |  |  |  | 70% |  |  |
